Data from patent US20130059787A1, “METHODS OF USING HUMAN PROTEIN KINASE C DELTA VIII AS A BIOMARKER” (UNITED STATES DEPARTMENT OF VETERAN AFFAIRS, priority 2010, published 2013).

How the values were obtained:
PKCδVIII = assay: RT-PCR with human PKCδ primers in primary neuronal cells from hippocampus; type: cell-based; conditions: RA about 24 h
Experimental: FIG. 2 is a series of images indicating the expression of PKCδVIII. (a) an image showing that both PKCδI and PKCδVIII were detected and the levels of PKCδVIII increased with retinoic acid treatment. Primary neuronal cells from hippocampus were treated with RA for about 24 h. Total RNA was extracted and RT-PCR performed with primers described in FIG. 1 which detect both PKCδI and PKCδVIII simultaneously. (b) an image showing that the expression of PKCδVIII is tissue-specific with the highest levels seen in the fetal brain. Human fetal tissue specific cdNAs were used in PCR analysis using PKCδVIII-specific primers. (i) Liver (ii) kidney (iii) heart (iv) spleen (v) brain. About five percent products were separated on PAGE and detected by silver nitrate staining […]
Using PKCδ primers, PKCδI and PKCδVIII are detected simultaneously: PKCδI is 368 bp and PKCδVIII is 461 bp. […] About 5% of products were resolved on 6% PAGE gels and detected by silver staining. The PCR reaction was optimized for linear range amplification to allow for quantification of products. […]
The inventors looked for the expression of PKCδ isozymes in primary neuronal cells to verify the expression pattern of PKCδVIII. […] PKCδI and PKCδVIII isoforms were detected and the levels of PKCδVIII increased with retinoic acid treatment (FIG. 2a). PKCδVIII was not detected in aorta smooth muscle cells or skeletal muscle cells (data not shown). […]

[1] = system: 5′ splice site II on PKCδ exon 10; assay: Mutated pSPL3_PKCδ** minigene (SC35 cis-element mutated) in NT2 cells, RT-PCR; type: cell-based, human; conditions: RA about 10 μM, about 24 h
From the text: FIG. 11 is a series of images depicting mutation of putative SC35 binding site inhibits RA-mediated utilization of 5′ splice site II utilization on the minigene. (a) schematic of the position and sequence of the putative SC35 cis-element on the pSPL3_PKCδ splicing minigene. Arrows indicate the position of primers used in PCR analysis. Putative SC35 binding site ggccaaag (SEQ ID No: 17) was mutated to tagcccaga (SEQ ID No: 18) on the minigene. (b) resulting mutated minigene pSPL3_PKCδ** was transfected into NT2 cells. In separate wells, the mutated minigene pSPL3_PKCδ** was co-transfected with either about 2 μg of SC35 or SF2/ASF. The original pSPL3_PKCδ splicing minigene was also transfected in a separate well. After overnight transfection, NT2 cells were treated with or without about 10 μM RA for about 24 h. Total RNA was extracted and RT-PCR performed using primers for PKCδ exon 10 sense and SA antisense as shown. About 5% of the products were separated by PAGE and silver stained for visualization. SSI: usage of 5′ splice site I; SSII: usage of 5′ splice site II. Graph represents percent exon inclusion calculated as SS II/(SS II+SSI)×100 and is representative of three experiments performed separately. […]

PKCδVIII mRNA = conditions: RA about 24 h; Jiang et al. 2008; cited from earlier work
Mcl-1 = assay: Apoptosis micro-array (SuperArray, real-time RT-PCR) in NT2 cells; type: cell-based, human; conditions: RA about 24 h vs control
From the text: (§1) FIG. 4 is a 3D profile of the results from the apoptosis micro-array. The graph represents an average of control and RA (1 day) samples carried out in triplicate. The average ΔCt=Ct(gene of interest)−Ct(housekeeping gene).
(§2) The inventors have shown that retinoic acid increases the levels of PKCδVIII in NT2 cells. An apoptosis micro-array (SuperArray, catalog #PAHS-012A) was used to determine the profiles of proteins associated with the apoptotic cascade. RNA was isolated from control and RA (about 24 h) treated NT2 cells and used in the analysis. Real-time RT-PCR was performed according to the manufacturers' protocol and data was analyzed by SuperArray software (FIG. 4). The inventors observed about a 6-fold increase in Bcl-2 levels which were concurrent with an increase in PKCδVIII levels following RA treatment.

Bcl-2 = assay: as above; type: cell-based, human; conditions: RA about 24 h vs control
From the text: as §1, §2

A1 = assay: as above; type: cell-based, human; conditions: RA about 24 h vs control
From the text: as §1, §2

SMILES: CC1=C(/C=C/C(C)=C/C=C/C(C)=C/C(=O)O)C(C)(C)CCC1 [RA, all-trans-retinoic acid]
- levels of PKCδVIII (RT-PCR) (PKCδVIII): increased
- selection of 5′ splice site II on PKCδ exon 10 in pSPL3_PKCδ**-mutated minigene [1]: did not promote
- expression of PKCδVIII in NT2 cells (PKCδVIII mRNA): significantly increases
- Mcl-1 levels (Mcl-1): Moderate increases
- increase in Bcl-2 levels (Bcl-2): ~6 fold
- A1 levels (A1): Moderate increases
